Assay results reported in ChEMBL document CHEMBL1201862, “PubChem BioAssay data set” (2004).
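Grown in 96-well plates, cells were treated for 48 hours with each compound at five concentrations. Insufficient inhibition: endpoint recorded as highest concentration tested. GI50 = concentration required for 50% inhibition of growth.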 The source made the active and inactive calls. Rule as the data show it: active = GI50 up to about 1.1 µM and inactive = higher.

What was measured:
Experiment in all cases: growth of human tumour cells (NCI), 48 h
[1] = tested on: 786-0
[2] = tested on: OVCAR-4
[3] = tested on: UACC-62
[4] = tested on: SNB-19
[5] = tested on: COLO 205
[6] = tested on: SNB-75
[7] = tested on: SK-MEL-5
[8] = tested on: HL-60
[9] = tested on: RXF 631
[10] = tested on: OVCAR-5
[11] = tested on: CAKI-1
[12] = tested on: SK-OV-3
[13] = tested on: ACHN
[14] = tested on: NCI-H23
[15] = tested on: Malme-3M
[16] = tested on: SK-MEL-28
[17] = tested on: LOX IMVI
[18] = tested on: IGROV-1
[19] = tested on: SN12C
[20] = tested on: HOP-62
[21] = tested on: NCI-H226
[22] = tested on: UACC-257
[23] = tested on: SF-295
[24] = tested on: NCI-H460
[25] = tested on: SNB-78
[26] = tested on: K562
[27] = tested on: HOP-92
[28] = tested on: UO-31
[29] = tested on: TK-10
[30] = tested on: HCC 2998
[31] = tested on: RXF 393
[32] = tested on: CCRF-CEM
[33] = tested on: M19-MEL
[34] = tested on: MOLT-4
[35] = tested on: EKVX
[36] = tested on: DMS-273
[37] = tested on: HCT-15
[38] = tested on: M14
[39] = tested on: OVCAR-8
[40] = tested on: OVCAR-3
[41] = tested on: KM12
[42] = tested on: HCT-116
[43] = tested on: SK-MEL-2
[44] = tested on: A549
[45] = tested on: SF-539
[46] = tested on: A498
[47] = tested on: SF-268
[48] = tested on: DMS-114
[49] = tested on: U-251
[50] = tested on: SW-620
[51] = tested on: HT-29
[52] = tested on: HOP-18
[53] = tested on: DLD-1
[54] = tested on: SR
[55] = tested on: NCI-H522
[56] = tested on: KM-20L2
[57] = tested on: DU-145
[58] = tested on: MDA-N
[59] = tested on: XF498
[60] = tested on: LXFL 529
[61] = tested on: PC-3
[62] = tested on: NCI/ADR-RES
[63] = tested on: BT-549
[64] = tested on: RPMI-8226
[65] = tested on: MCF7
[66] = tested on: MDA-MB-435
[67] = tested on: MDA-MB-231

For `O=C1CCC(=O)C1=NNc1ccccc1`, the GI50 [1] was > 100 µM (inactive), the GI50 [2] was > 100 µM (inactive) and the GI50 [3] was 8.38 µM (inactive). For the same molecule, the GI50 [4] was > 100 µM (inactive), the GI50 [5] was > 100 µM (inactive) and the GI50 [6] was > 100 µM (inactive). For the same molecule, the GI50 [7] was 80.4 µM (inactive), the GI50 [8] was > 100 µM (inactive) and the GI50 [9] was > 100 µM (inactive). For the same molecule, the GI50 [10] was > 100 µM (inactive), the GI50 [11] was > 100 µM (inactive) and the GI50 [12] was > 100 µM (inactive). For the same molecule, the GI50 [13] was > 100 µM (inactive), the GI50 [14] was > 100 µM (inactive) and the GI50 [15] was > 100 µM (inactive). For the same molecule, the GI50 [16] was > 100 µM (inactive), the GI50 [17] was > 100 µM (inactive) and the GI50 [18] was > 100 µM (inactive). For the same molecule, the GI50 [19] was > 100 µM (inactive), the GI50 [20] was > 100 µM (inactive) and the GI50 [21] was > 100 µM (inactive). For the same molecule, the GI50 [22] was > 100 µM (inactive), the GI50 [23] was > 100 µM (inactive) and the GI50 [24] was > 100 µM (inactive). For the same molecule, the GI50 [25] was > 100 µM (inactive), the GI50 [26] was > 100 µM (inactive) and the GI50 [27] was > 100 µM (inactive). For the same molecule, the GI50 [28] was > 100 µM (inactive), the GI50 [29] was > 100 µM (inactive) and the GI50 [30] was > 100 µM (inactive). For the same molecule, the GI50 [31] was > 100 µM (inactive), the GI50 [32] was > 100 µM (inactive) and the GI50 [33] was > 100 µM (inactive). For the same molecule, the GI50 [34] was > 100 µM (inactive), the GI50 [35] was > 100 µM (inactive) and the GI50 [36] was > 100 µM (inactive). For the same molecule, the GI50 [37] was > 100 µM, the GI50 [38] was > 100 µM (inactive) and the GI50 [39] was > 100 µM (inactive). For the same molecule, the GI50 [40] was > 100 µM (inactive), the GI50 [41] was > 100 µM (inactive) and the GI50 [42] was > 100 µM (inactive). For the same molecule, the GI50 [43] was > 100 µM (inactive), the GI50 [44] was > 100 µM (inactive) and the GI50 [45] was > 100 µM (inactive). The GI50 [46] was 43.6 µM (inactive), the GI50 [47] was > 100 µM (inactive) and the GI50 [48] was > 100 µM (inactive). For the same molecule, the GI50 [49] was > 100 µM (inactive), the GI50 [50] was > 100 µM (inactive) and the GI50 [51] was > 100 µM (inactive). The GI50 [52] was > 100 µM (inactive) and the GI50 [53] was > 100 µM (inactive).
With `CCNC(CCCC(NCC)P(=O)(O)O)P(=O)(O)O` (stereo not given) the GI50 [3] was > 100 µM (inactive), the GI50 [4] was > 100 µM (inactive) and the GI50 [8] was > 100 µM (inactive). For the same molecule, the GI50 [9] was > 100 µM (inactive), the GI50 [10] was > 100 µM (inactive) and the GI50 [12] was > 100 µM (inactive). For the same molecule, the GI50 [14] was > 100 µM (inactive), the GI50 [16] was > 100 µM (inactive) and the GI50 [18] was > 100 µM (inactive). For the same molecule, the GI50 [20] was > 100 µM (inactive), the GI50 [21] was > 100 µM (inactive) and the GI50 [22] was > 100 µM (inactive). For the same molecule, the GI50 [23] was > 100 µM (inactive), the GI50 [24] was > 100 µM (inactive) and the GI50 [25] was > 100 µM (inactive). The GI50 [27] was > 100 µM (inactive), the GI50 [28] was > 100 µM (inactive) and the GI50 [29] was > 100 µM (inactive). For the same molecule, the GI50 [31] was > 100 µM (inactive), the GI50 [32] was > 100 µM (inactive) and the GI50 [33] was > 100 µM (inactive). For the same molecule, the GI50 [34] was > 100 µM (inactive), the GI50 [54] was > 100 µM (inactive) and the GI50 [38] was > 100 µM (inactive). The GI50 [39] was > 100 µM (inactive), the GI50 [41] was > 100 µM (inactive) and the GI50 [42] was > 100 µM (inactive). The GI50 [55] was > 100 µM (inactive), the GI50 [44] was > 100 µM (inactive) and the GI50 [46] was > 100 µM (inactive). The GI50 [49] was > 100 µM (inactive), the GI50 [56] was > 100 µM (inactive) and the GI50 [51] was > 100 µM (inactive).
With `COc1cc(C2c3cc4c(cc3[C@@H](Nc3ccc(N)cc3)C3COC(=O)[C@H]23)OCO4)cc(OC)c1O` (stereo not given in full) the GI50 [1] was 0.908 µM (active), the GI50 [2] was 24.5 µM (inactive) and the GI50 [3] was 1.15 µM (inactive). For the same molecule, the GI50 [4] was 0.805 µM (active), the GI50 [57] was 0.121 µM (active) and the GI50 [5] was 7.85 µM (inactive). The GI50 [6] was 1.94 µM (inactive), the GI50 [58] was 3.93 µM (inactive) and the GI50 [7] was 0.918 µM (active). The GI50 [59] was 1.45 µM (inactive), the GI50 [60] was 8.59 µM (inactive) and the GI50 [10] was 4.08 µM (inactive). The GI50 [11] was 0.446 µM (active), the GI50 [12] was 1.51 µM (inactive) and the GI50 [13] was 1.25 µM (inactive). The GI50 [14] was 0.828 µM (active), the GI50 [15] was 2.13 µM (inactive) and the GI50 [16] was 6.76 µM (inactive). For the same molecule, the GI50 [17] was 0.395 µM (active), the GI50 [18] was 3.35 µM (inactive) and the GI50 [19] was 0.711 µM (active). The GI50 [20] was 0.363 µM (active), the GI50 [21] was 1.19 µM (inactive) and the GI50 [61] was 0.446 µM (active). The GI50 [22] was 7.19 µM (inactive), the GI50 [62] was 3.75 µM (inactive) and the GI50 [23] was 0.403 µM (active). The GI50 [24] was 0.0557 µM (active), the GI50 [63] was 2.5 µM (inactive) and the GI50 [25] was 9.16 µM (inactive). For the same molecule, the GI50 [64] was 0.425 µM (active), the GI50 [26] was 3.13 µM (inactive) and the GI50 [27] was 0.948 µM (active). For the same molecule, the GI50 [28] was 1.34 µM (inactive), the GI50 [29] was 3.64 µM (inactive) and the GI50 [30] was 3.27 µM (inactive). The GI50 [31] was 3.91 µM (inactive), the GI50 [32] was 0.222 µM (active) and the GI50 [33] was 2.91 µM (inactive). For the same molecule, the GI50 [65] was 0.0451 µM (active), the GI50 [35] was 3.64 µM (inactive) and the GI50 [54] was 0.205 µM (active). The GI50 [36] was 0.361 µM (active), the GI50 [37] was 2.21 µM and the GI50 [38] was 1.31 µM (inactive). For the same molecule, the GI50 [39] was 2.22 µM (inactive), the GI50 [40] was 6.1 µM (inactive) and the GI50 [41] was 3.43 µM (inactive). The GI50 [42] was 2.7 µM (inactive), the GI50 [66] was 10.8 µM (inactive) and the GI50 [55] was 2.22 µM (inactive). The GI50 [43] was 5.73 µM (inactive), the GI50 [44] was 0.137 µM (active) and the GI50 [45] was 1.07 µM (active). The GI50 [46] was 1.18 µM (inactive), the GI50 [47] was 1.63 µM (inactive) and the GI50 [48] was 1.59 µM (inactive). For the same molecule, the GI50 [67] was 12.3 µM (inactive), the GI50 [49] was 0.401 µM (active) and the GI50 [50] was 2.14 µM (inactive). The GI50 [56] was 1.94 µM (inactive), the GI50 [51] was 3.64 µM (inactive) and the GI50 [52] was 9.89 µM (inactive). The GI50 [53] was 4.57 µM (inactive).
